Reference: article PMC6934184, “Selective DNA-PKcs inhibition extends the therapeutic index of localized radiotherapy and chemotherapy” (The Journal of Clinical Investigation, 2019)

Target: T1, CDC42 BPA (MRCKA) (Homo sapiens, UniProt Q5VT25)
T1 construct: purchased Thermo Fisher Scientific (Life Technologies) SelectScreen
Experiment: SelectScreen Z'LYTE
Type: biochemical
Outline: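 NU5455 was profiled across the SelectScreen Broad panel of kinase activity and binding assays. Z'LYTE reactions such as CSF1R ran at apparent Km ATP, while the Adapta CAMK1 assay used ATP listed as 10. Values are given as percent.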

T1 sequence (Q5VT25 whole entry): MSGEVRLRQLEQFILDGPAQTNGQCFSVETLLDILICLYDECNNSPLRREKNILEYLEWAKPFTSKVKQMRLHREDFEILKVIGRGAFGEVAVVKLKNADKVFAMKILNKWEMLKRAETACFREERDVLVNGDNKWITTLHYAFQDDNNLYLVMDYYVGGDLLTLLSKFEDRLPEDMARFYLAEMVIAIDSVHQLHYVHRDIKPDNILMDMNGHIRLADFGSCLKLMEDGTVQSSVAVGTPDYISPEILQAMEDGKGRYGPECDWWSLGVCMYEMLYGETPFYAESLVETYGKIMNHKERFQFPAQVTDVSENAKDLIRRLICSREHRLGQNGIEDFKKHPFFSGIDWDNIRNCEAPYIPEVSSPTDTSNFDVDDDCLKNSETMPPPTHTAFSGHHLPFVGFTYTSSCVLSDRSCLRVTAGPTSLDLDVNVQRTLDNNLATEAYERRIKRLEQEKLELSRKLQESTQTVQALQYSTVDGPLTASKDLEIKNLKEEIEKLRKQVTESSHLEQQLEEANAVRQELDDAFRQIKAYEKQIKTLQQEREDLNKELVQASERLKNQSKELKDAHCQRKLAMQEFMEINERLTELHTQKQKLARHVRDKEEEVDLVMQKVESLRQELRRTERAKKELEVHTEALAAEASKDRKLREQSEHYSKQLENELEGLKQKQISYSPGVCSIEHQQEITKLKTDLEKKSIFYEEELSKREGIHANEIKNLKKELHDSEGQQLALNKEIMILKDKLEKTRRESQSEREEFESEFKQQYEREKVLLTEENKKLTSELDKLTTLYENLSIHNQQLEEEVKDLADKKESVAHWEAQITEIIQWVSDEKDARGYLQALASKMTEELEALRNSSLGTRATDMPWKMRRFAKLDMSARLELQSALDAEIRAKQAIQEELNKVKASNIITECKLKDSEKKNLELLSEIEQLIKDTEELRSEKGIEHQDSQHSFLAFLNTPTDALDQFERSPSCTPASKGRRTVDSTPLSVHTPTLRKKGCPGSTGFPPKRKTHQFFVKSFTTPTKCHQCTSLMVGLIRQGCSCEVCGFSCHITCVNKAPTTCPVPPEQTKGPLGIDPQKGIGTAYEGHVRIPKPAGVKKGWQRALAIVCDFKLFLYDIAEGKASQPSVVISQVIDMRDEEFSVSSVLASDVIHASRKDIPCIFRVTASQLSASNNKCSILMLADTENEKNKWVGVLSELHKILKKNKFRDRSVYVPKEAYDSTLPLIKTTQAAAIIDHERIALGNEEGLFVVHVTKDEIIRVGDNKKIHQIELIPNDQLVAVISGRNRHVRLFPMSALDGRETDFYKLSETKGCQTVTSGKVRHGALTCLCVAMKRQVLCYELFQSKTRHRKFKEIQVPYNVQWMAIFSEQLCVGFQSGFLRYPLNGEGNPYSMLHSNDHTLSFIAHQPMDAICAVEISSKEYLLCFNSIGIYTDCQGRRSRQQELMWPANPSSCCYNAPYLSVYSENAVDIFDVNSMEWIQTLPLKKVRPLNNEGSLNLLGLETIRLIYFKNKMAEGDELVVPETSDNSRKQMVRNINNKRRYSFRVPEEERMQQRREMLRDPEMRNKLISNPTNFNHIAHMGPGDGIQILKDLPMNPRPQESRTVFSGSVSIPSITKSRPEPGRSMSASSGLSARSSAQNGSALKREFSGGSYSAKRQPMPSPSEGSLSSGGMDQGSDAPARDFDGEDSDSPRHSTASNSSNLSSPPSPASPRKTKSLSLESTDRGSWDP

For `CN(C(=O)CN1CCOCC1)c1ccc2sc3c(-c4cccc5c(=O)cc(N6CC7CCC(C6)O7)oc45)cccc3c2c1` [NU5455], the inhibition at 1 µM was 5%.
